The supplement of paper PMC10307832

Compound: CC1=C(N=C(N=C1N)[C@H](CC(=O)N)NC[C@@H](C(=O)N)N)C(=O)N[C@@H]([C@H](C2=CN=CN2)OC3C(C(C(C(O3)CO)O)O)OC4C(C(C(C(O4)CO)O)OC(=O)N)O)C(=O)N[C@H](C)[C@H]([C@H](C)C(=O)N[C@@H]([C@@H](C)O)C(=O)NCCC5=NC(=CS5)C6=NC(=CS6)C(=O)NCCC[S+](C)C)O [Bleomycin] + C[C@]1(O)C[C@@H](c2nc(-c3ccc4ccc(-c5ccccc5)nc4c3)c3c(N)nccn32)C1 [Linsitinib] (partner 1 µM)
Experiment: relative viability (nuclei count vs DMSO), 5 days (fraction); higher = more cells survive
Conditions: first compound 0.1 µM; main component drawn
Method in brief: (§1)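 Dosing by pin tool came one day after lung cancer cell lines were seeded in 1536-well plates, using either one drug or a fixed anchor-drug dose plus five library-drug doses (not always all listed) in √10 steps. After 5 days, nuclei were counted on 4× images. Relative viability is treated-well nuclei count divided by vehicle-well nuclei count, and values are medians of duplicate plates.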

Cell Line	relative viability
NCI-H2126	0.687
SK-MES-1	0.819
H3255	0.902
COR-L23	0.307
COR-L 105	0.708
IA-LM	0.344
A549	0.384
NCI-H441	0.564
NCI-H1395	0.666
NCI-H1299	0.854
NCI-H1793	0.719

Same assay, conditions: first compound 0.3162 µM; main component drawn

Cell Line	relative viability
NCI-H838	0.189
EBC-1	0.698
NCI-H1703	0.321
NCI-H1993	0.59
NCI-H2087	0.374
PC-14	0.118
LCLC-103H	1.13
NCI-H596	0.442
NCI-H2228	0.559
EMC-BAC-2	0.38
NCI-H2085	0.346
Calu-6	0.174
HCC-366	0.0412
NCI-H1666	0.335
NCI-H647	0.13
LK-2	0.198
NCI-H2126	0.645
SK-MES-1	0.287
H3255	0.538
COR-L23	0.106
COR-L 105	0.393
IA-LM	0.293
A549	0.0789
NCI-H441	0.209
NCI-H1395	0.626
NCI-H1299	0.481
NCI-H1793	0.276

Same assay, conditions: first compound 1 µM; main component drawn

Cell Line	relative viability
NCI-H838	0.159
EBC-1	0.366
NCI-H1703	0.19
NCI-H1993	0.518
NCI-H2087	0.255
PC-14	0.119
LCLC-103H	0.564
NCI-H596	0.43
NCI-H2228	0.4
EMC-BAC-2	0.265
NCI-H2085	0.363
Calu-6	0.125
HCC-366	0.0312
NCI-H1666	0.269
NCI-H647	0.102
LK-2	0.255
NCI-H2126	0.546
SK-MES-1	0.216
H3255	0.387
COR-L23	0.102
COR-L 105	0.317
IA-LM	0.246
A549	0.0779
NCI-H441	0.255
NCI-H1395	0.391
NCI-H1299	0.245
NCI-H1793	0.249

Compound: COc1cc([C@@H]2c3cc4c(cc3[C@@H](O[C@@H]3O[C@@H]5CO[C@@H](C)O[C@H]5[C@H](O)[C@H]3O)[C@H]3COC(=O)[C@H]23)OCO4)cc(OC)c1O [Etoposide] + COc1cccc2cc(-c3nc([C@H]4CC[C@H](C(=O)O)CC4)n4ncnc(N)c34)[nH]c12 [OSI-027] (partner 0.5 µM)
Experiment: as above
Conditions: first compound 0.01 µM
Method in brief: as §1

Cell Line	relative viability
NCI-H522	0.647
NCI-H1623	0.438
NCI-H838	0.37
NCI-H1650	0.711
